Assays:
[1] = biological target: human adenosine A2B receptor (Homo sapiens (Human), UniProt P29275); assay: Adenosine A2B Receptor Cyclic AMP GS Assay; type: cell-based; settings: HEK-293 cells expressing human A2B receptor, agonist NECA 12 nM, cAMP accumulation; read-out: A2B_cAMP_EC50
Experimental: Example B. Adenosine A2B Receptor Cyclic AMP GS Assay
Stably transfected HEK-293 cells expressing the human adenosine A2B receptor (Perkin Elmer) were maintained in MEM culture medium with 10% FBS and 100 μg/mL Geneticin (Life Technologies). 18 to 24 hours prior to assay, geneticin was removed from culture. The cisbio cAMP-GS Dynamic kit utilizing the FRET (Fluorescence Resonance Energy Transfer) technology was used to measure cAMP accumulation in the cells. Compounds of the present disclosure at an appropriate concentration were mixed with 10000 cells/well in white 96 well half area plates (Perkin Elmer) for 30 min at room temperature gently shaking. Agonist, NECA (R&D Technologies) at 12 nM was added to each well for 60 min at room temperature gently shaking. Detection reagents, d2-labeled cAMP (acceptor) and anti-cAMP cryptate (donor) were added to each well for 60 min at RT gently shaking. Plates were read on Pherastar (BMG Labtech), fluorescence ratio 665/620 was calculated and EC50 determination was performed by fitting the curve of percent of control versus the log of the compound concentration using GraphPad Prism.

[2] = biological target: Adenosine A2A receptor (Homo sapiens (Human), UniProt P29274); assay: A2A Tag-Lite HTRF assay; type: binding; settings: Tag-Lite Adenosine A2A labeled cells, displacement of A2A Receptor Red antagonist fluorescent ligand 12.5 nM; read-out: A2A_Ki
Description: Example C. A2A Tag-Lite® HTRF Assay
The final concentration of DMSO was 1%.

Chain of Adenosine A2A receptor (P29274 whole entry): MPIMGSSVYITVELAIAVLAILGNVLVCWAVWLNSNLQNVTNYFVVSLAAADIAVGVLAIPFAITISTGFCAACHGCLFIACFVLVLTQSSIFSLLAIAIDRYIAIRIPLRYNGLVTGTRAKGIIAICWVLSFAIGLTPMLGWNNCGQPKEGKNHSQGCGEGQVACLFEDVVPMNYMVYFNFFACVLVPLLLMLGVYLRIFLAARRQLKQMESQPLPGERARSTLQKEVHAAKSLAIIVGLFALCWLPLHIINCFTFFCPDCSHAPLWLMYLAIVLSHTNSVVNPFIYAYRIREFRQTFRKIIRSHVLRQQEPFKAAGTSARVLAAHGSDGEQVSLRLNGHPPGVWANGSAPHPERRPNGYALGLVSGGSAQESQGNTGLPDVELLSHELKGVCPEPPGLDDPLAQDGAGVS
Chain of human adenosine A2B receptor (P29275 whole entry): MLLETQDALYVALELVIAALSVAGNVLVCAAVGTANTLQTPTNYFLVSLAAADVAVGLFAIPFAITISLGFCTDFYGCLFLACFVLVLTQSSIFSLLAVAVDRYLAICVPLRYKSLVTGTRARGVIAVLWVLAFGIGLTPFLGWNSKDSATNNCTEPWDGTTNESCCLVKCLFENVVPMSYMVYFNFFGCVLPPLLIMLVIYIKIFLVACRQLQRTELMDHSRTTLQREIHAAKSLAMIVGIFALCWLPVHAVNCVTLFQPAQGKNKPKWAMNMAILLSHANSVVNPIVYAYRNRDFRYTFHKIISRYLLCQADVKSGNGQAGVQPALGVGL

**Q.** `CCN1CCC(NCc2cccc(F)c2Cc2nc3cc(-c4cccc(C#N)c4F)nc(N)n3n2)C1=O` (stereo not shown) [Example 24, 3-(5-Amino-2-(2-(((1-ethyl-2-oxopyrrolidin-3-yl)amino)methyl)-6-fluorobenzyl)-[1,2,4]triazolo[1,5-c]pyrimidin-7-yl)-2-fluorobenzonitrile] was tested. Which EC50 [1] did it give?
**A.** Its EC50 is 10 to 100 nM.

**Q.** What about the Ki [2] of the same compound?
**A.** The Ki was under 10 nM.

**Q.** For `CC(=O)N[C@H]1CCN(Cc2cccc(F)c2Cc2nc3cc(-c4cccc(C#N)c4F)nc(N)n3n2)C1` [Example 25, (S)—N-(1-(2-((5-Amino-7-(3-cyano-2-fluorophenyl)-[1,2,4]triazolo[1,5-c]pyrimidin-2-yl)methyl)-3-fluorobenzyl)pyrrolidin-3-yl)acetamide], which EC50 [1] is on record?
**A.** The EC50 was 10 to 100 nM.

**Q.** What about the Ki [2] of the same compound?
**A.** The Ki was under 10 nM.

**Q.** `N#Cc1cccc(-c2cc3nc(Cc4c(F)cccc4CN4CCC[C@H]4c4nn[nH]n4)nn3c(N)n2)c1F` [Example 26, (S)-3-(2-(2-((2-(2H-Tetrazol-5-yl)pyrrolidin-1-yl)methyl)-6-fluorobenzyl)-5-amino-[1,2,4]triazolo[1,5-c]pyrimidin-7-yl)-2-fluorobenzonitrile] was tested. Which EC50 [1] did it give?
**A.** Its EC50 is under 10 nM.

**Q.** And the Ki [2]?
**A.** The Ki was under 10 nM.

**Q.** For `N#Cc1cccc(-c2cc3nc(Cc4c(F)cccc4CN4CC[C@H](C#N)C4)nn3c(N)n2)c1F` [Example 27, (S)-1-(2-((5-Amino-7-(3-cyano-2-fluorophenyl)-[1,2,4]triazolo[1,5-c]pyrimidin-2-yl)methyl)-3-fluorobenzyl)pyrrolidine-3-carbonitrile], which EC50 [1] is on record?
**A.** The EC50 was 10 to 100 nM.

**Q.** What about the Ki [2] of the same compound?
**A.** Its Ki is under 10 nM.

**Q.** Which EC50 [1] does the source give for `CN1CCC2(CN(Cc3cccc(F)c3Cc3nc4cc(-c5cccc(C#N)c5F)nc(N)n4n3)C2)C1=O` [Example 28, 3-(5-Amino-2-(2-fluoro-6-((6-methyl-5-oxo-2,6-diazaspiro[3.4]octan-2-yl)methyl)benzyl)-[1,2,4]triazolo[1,5-c]pyrimidin-7-yl)-2-fluorobenzonitrile] here?
**A.** Its EC50 is 10 to 100 nM.

**Q.** What about the Ki [2] of the same compound?
**A.** Its Ki is under 10 nM.

**Q.** Which EC50 [1] does the source give for `CN1CCC(NCc2cccc(F)c2Cc2nc3cc(-c4cccc(C#N)c4F)nc(N)n3n2)C1=O` (stereo not shown) [Example 29, 3-(5-Amino-2-(2-fluoro-6-(((1-methyl-2-oxopyrrolidin-3-yl)amino)methyl)benzyl)-[1,2,4]triazolo[1,5-c]pyrimidin-7-yl)-2-fluorobenzonitrile] here?
**A.** Its EC50 is 10 to 100 nM.

**Q.** What about the Ki [2] of the same compound?
**A.** Its Ki is under 10 nM.

**Q.** What does the source list for `CCN(Cc1cccc(F)c1Cc1nc2cc(-c3cccc(C#N)c3F)nc(N)n2n1)C1CCN(CC(=O)O)C1=O` (stereo not shown) [Example 30, 2-(3-((2-((5-Amino-7-(3-cyano-2-fluorophenyl)-[1,2,4]triazolo[1,5-c]pyrimidin-2-yl)methyl)-3-fluorobenzyl)(ethyl)amino)-2-oxopyrrolidin-1-yl)acetic acid]?
**A.** EC50 [1]: < 10 nM; Ki [2]: < 10 nM

**Q.** `CCN(Cc1cccc(F)c1Cc1nc2cc(-c3cccc(C#N)c3F)nc(N)n2n1)C1CCN(C)C1=O` (stereo not shown) [Example 31, 3-(5-Amino-2-(2-((ethyl(1-methyl-2-oxopyrrolidin-3-yl)amino)methyl)-6-fluorobenzyl)-[1,2,4]triazolo[1,5-c]pyrimidin-7-yl)-2-fluorobenzonitrile] was tested. Which EC50 [1] did it give?
**A.** The EC50 was under 10 nM.

**Q.** And the Ki [2]?
**A.** Its Ki is under 10 nM.

**Q.** `CCN(Cc1cccc(F)c1Cc1nc2cc(-c3cccc(C#N)c3F)nc(N)n2n1)[C@@H]1CCNC1=O` [Example 32, (R)-3-(5-Amino-2-(2-((ethyl(2-oxopyrrolidin-3-yl)amino)methyl)-6-fluorobenzyl)-[1,2,4]triazolo[1,5-c]pyrimidin-7-yl)-2-fluorobenzonitrile] was tested. Which EC50 [1] did it give?
**A.** Its EC50 is 10 to 100 nM.

**Q.** And the Ki [2]?
**A.** Its Ki is under 10 nM.

**Q.** How did the EC50 [1] turn out when `N#Cc1cccc(-c2cc3nc(NCc4cccc(-c5cnn(C6CCNCC6)c5)n4)nn3c(N)n2)c1F` [Example 33, 3-(5-Amino-2-(((6-(1-(piperidin-4-yl)-1H-pyrazol-4-yl)pyridin-2-yl)methyl)amino)-[1,2,4]triazolo[1,5-c]pyrimidin-7-yl)-2-fluorobenzonitrile] was run?
**A.** Its EC50 is under 10 nM.

**Q.** And the Ki [2]?
**A.** The Ki was under 10 nM.

**Q.** Which results are given for `N#Cc1cccc(-c2cc3nc(NCc4cccc(-c5cnn(CCN6CCOCC6)c5)n4)nn3c(N)n2)c1F` [Example 34, 3-(5-Amino-2-(((6-(1-(2-morpholinoethyl)-1H-pyrazol-4-yl)pyridin-2-yl)methyl)amino)-[1,2,4]triazolo[1,5-c]pyrimidin-7-yl)-2-fluorobenzonitrile]?
**A.** EC50 [1]: 10 to 100 nM; Ki [2]: < 10 nM

From US11168089B2, “Fused pyrimidine derivatives as A2A / A2B inhibitors” (Incyte Corporation, priority 2018, dated 2021)
